Assays:
[1] = xn = mol fraction of the nth substance listed; details: 298.15 K, 101 kPa, Liquid, Vibrating tube method
[2] = excess molar enthalpy (molar enthalpy of mixing); xn = mol fraction of the nth substance listed; details: 298.15 K, 101 kPa, Liquid, Calvet calorimetry

ClCCCCCl [1,4-dichlorobutane] + CCCOC(=O)CC
Details	excess molar enthalpy [kJ/mol]	mass density [kg/m3]
[1], x2 = 0.0527	–	1118.03
[1], x2 = 0.1038	–	1102.83
[1], x2 = 0.1547	–	1087.98
[1], x2 = 0.2085	–	1072.56
[1], x2 = 0.2627	–	1057.37
[1], x2 = 0.3186	–	1041.98
[1], x2 = 0.3736	–	1027.16
[1], x2 = 0.49	–	996.65
[1], x2 = 0.5485	–	981.77
[1], x2 = 0.612	–	965.97
[1], x2 = 0.6735	–	950.93
[1], x2 = 0.7351	–	936.2
[1], x2 = 0.8004	–	920.88
[1], x2 = 0.866	–	905.76
[1], x2 = 0.9333	–	890.53
[2], x2 = 0.0573	-0.026	–
[2], x2 = 0.133	-0.063	–
[2], x2 = 0.2168	-0.129	–
[2], x2 = 0.3006	-0.193	–
[2], x2 = 0.381	-0.25	–
[2], x2 = 0.4539	-0.297	–
[2], x2 = 0.5117	-0.311	–
[2], x2 = 0.5559	-0.311	–
[2], x2 = 0.6419	-0.297	–
[2], x2 = 0.7366	-0.26	–
[2], x2 = 0.8338	-0.187	–
[2], x2 = 0.9261	-0.095	–

CCCOC(=O)CC [propyl propanoate] + ClCCCCCCCl
Details	mass density [kg/m3]
[1], x1 = 1	875.61

ClCCCCl [1,3-dichloropropane] + CCCOC(=O)CC
Details	excess molar enthalpy [kJ/mol]	mass density [kg/m3]
[1], x2 = 0.0456	–	1160.2
[1], x2 = 0.09	–	1142.38
[1], x2 = 0.1357	–	1124.66
[1], x2 = 0.1827	–	1107.03
[1], x2 = 0.2323	–	1089.1
[1], x2 = 0.2857	–	1070.52
[1], x2 = 0.3377	–	1053.06
[1], x2 = 0.3926	–	1035.32
[1], x2 = 0.5112	–	999.15
[1], x2 = 0.5749	–	980.88
[1], x2 = 0.6382	–	963.43
[1], x2 = 0.7097	–	944.54
[1], x2 = 0.7804	–	926.67
[1], x2 = 0.8459	–	910.76
[1], x2 = 0.9232	–	892.71
[2], x2 = 0.0469	-0.039	–
[2], x2 = 0.1103	-0.087	–
[2], x2 = 0.1814	-0.151	–
[2], x2 = 0.2562	-0.228	–
[2], x2 = 0.3312	-0.289	–
[2], x2 = 0.4023	-0.336	–
[2], x2 = 0.4661	-0.369	–
[2], x2 = 0.528	-0.388	–
[2], x2 = 0.6046	-0.374	–
[2], x2 = 0.706	-0.332	–
[2], x2 = 0.816	-0.241	–
[2], x2 = 0.9152	-0.133	–

CCCOC(=O)CCC [propyl butanoate] + ClCCCCCl
Details	excess molar enthalpy [kJ/mol]	mass density [kg/m3]
[1], x1 = 0.1349	–	1087.88
[1], x1 = 0.1841	–	1072.12
[1], x1 = 0.233	–	1056.97
[1], x1 = 0.2856	–	1041.17
[1], x1 = 0.3405	–	1025.23
[1], x1 = 0.3956	–	1009.76
[1], x1 = 0.5129	–	978.41
[1], x1 = 0.6385	–	947.12
[1], x1 = 0.7731	–	915.88
[1], x1 = 0.8454	–	900
[1], x1 = 0.918	–	884.64
[1], x1 = 1	–	867.9
[2], x1 = 0.0503	-0.019	–
[2], x1 = 0.1217	-0.049	–
[2], x1 = 0.2009	-0.085	–
[2], x1 = 0.2826	-0.128	–
[2], x1 = 0.3602	-0.174	–
[2], x1 = 0.4315	-0.216	–
[2], x1 = 0.5579	-0.263	–
[2], x1 = 0.6248	-0.256	–
[2], x1 = 0.699	-0.234	–
[2], x1 = 0.7829	-0.191	–
[2], x1 = 0.8689	-0.126	–
[2], x1 = 0.9389	-0.066	–

ClCCCCCCl [1,5-dichloropentane] + CCCOC(C)=O
Details	excess molar enthalpy [kJ/mol]	mass density [kg/m3]
[1], x2 = 0.0592	–	1083.72
[1], x2 = 0.126	–	1070.79
[1], x2 = 0.1854	–	1059.08
[1], x2 = 0.2502	–	1046.15
[1], x2 = 0.3122	–	1033.6
[1], x2 = 0.3736	–	1021.02
[1], x2 = 0.495	–	995.63
[1], x2 = 0.5537	–	983.11
[1], x2 = 0.6672	–	958.42
[1], x2 = 0.7269	–	945.17
[1], x2 = 0.7802	–	933.16
[1], x2 = 0.8365	–	920.34
[1], x2 = 0.889	–	908.23
[1], x2 = 0.9471	–	894.67
[2], x2 = 0.0656	-0.016	–
[2], x2 = 0.1426	-0.02	–
[2], x2 = 0.2338	-0.056	–
[2], x2 = 0.3247	-0.1	–
[2], x2 = 0.4088	-0.141	–
[2], x2 = 0.4844	-0.164	–
[2], x2 = 0.5426	-0.171	–
[2], x2 = 0.5428	-0.172	–
[2], x2 = 0.6183	-0.171	–
[2], x2 = 0.6974	-0.153	–
[2], x2 = 0.7844	-0.118	–
[2], x2 = 0.8682	-0.077	–
[2], x2 = 0.9448	-0.034	–

CCCOC=O [propyl methanoate] + ClCCCCl
Details	excess molar enthalpy [kJ/mol]	mass density [kg/m3]
[1], x1 = 0.0604	–	1161.58
[1], x1 = 0.1163	–	1145.6
[1], x1 = 0.1772	–	1128.25
[1], x1 = 0.2336	–	1112.22
[1], x1 = 0.2937	–	1095.19
[1], x1 = 0.3531	–	1078.45
[1], x1 = 0.4676	–	1046.35
[1], x1 = 0.5255	–	1030.24
[1], x1 = 0.5854	–	1013.57
[1], x1 = 0.6437	–	997.42
[1], x1 = 0.7051	–	980.49
[1], x1 = 0.7636	–	964.45
[1], x1 = 0.8238	–	947.98
[1], x1 = 0.8823	–	932.02
[1], x1 = 1	–	899.81
[2], x1 = 0.065	-0.015	–
[2], x1 = 0.1452	-0.031	–
[2], x1 = 0.2308	-0.054	–
[2], x1 = 0.3182	-0.079	–
[2], x1 = 0.3939	-0.099	–
[2], x1 = 0.4578	-0.105	–
[2], x1 = 0.5145	-0.114	–
[2], x1 = 0.5379	-0.113	–
[2], x1 = 0.5862	-0.112	–
[2], x1 = 0.6669	-0.103	–
[2], x1 = 0.7509	-0.088	–
[2], x1 = 0.8484	-0.062	–
[2], x1 = 0.9347	-0.032	–

CCCOC(=O)CC [propyl propanoate] + ClCCCCCl
Details	mass density [kg/m3]
[1], x1 = 1	875.61

CCCOC(C)=O [propyl ethanoate] + ClCCCCCCl
Details	mass density [kg/m3]
[1], x1 = 1	882.08

CCCOC(=O)CC [propyl propanoate] + ClCCCCl
Details	mass density [kg/m3]
[1], x1 = 1	875.61

CCCOC(C)=O [propyl ethanoate] + ClCCCCl
Details	mass density [kg/m3]
[1], x1 = 1	882.08

CCCOC(C)=O [propyl ethanoate] + ClCCCCCl
Details	mass density [kg/m3]
[1], x1 = 1	882.08

CCCOC(=O)CC [propyl propanoate] + ClCCCCCCl
Details	mass density [kg/m3]
[1], x1 = 1	875.61

CCCOC(C)=O [propyl ethanoate] + ClCCCl
Details	mass density [kg/m3]
[1], x1 = 1	882.08

CCCOC=O [propyl methanoate] + ClCCCCCCl
Details	mass density [kg/m3]
[1], x1 = 1	899.81
